The test system of assay [1] is DARQ J mutant M. tuberculosis. In kind it is cell-based, Mycobacterium tuberculosis.
The test system of assay [2] is M. tuberculosis strains resistant to J. In kind it is cell-based, Mycobacterium tuberculosis.

Consider `C(=NC1CCCCC1)=NC1CCCCC1` [DCCD, reference compound], for which, in assay [1], the “effect on ATP production (total cellular ATP)” value is “able to block the ATP production”.
Take `COc1nc2ccc(Br)cc2cc1[C@@H](c1ccccc1)[C@@](O)(CCN(C)C)c1cccc2ccccc12` [J]: the “effect on ATP production (total cellular ATP)” value in assay [1] is recorded as “did not show any decrease”.
With `NCC[C@H](O)C(=O)N[C@@H]1C[C@H](N)[C@@H](O[C@H]2O[C@H](CN)[C@@H](O)[C@H](O)[C@H]2O)[C@H](O)[C@H]1O[C@H]1O[C@H](CO)[C@@H](O)[C@H](N)[C@H]1O` [amikacin], the “sensitivity of M. tuberculosis strains resistant to J to the anti-TB agent” value (“sensitivity” below) in assay [2] is reported as “unchanged”.
With `CC[C@@H](CO)NCCN[C@@H](CC)CO` [ethambutol], the “sensitivity” value in assay [2] is recorded as “unchanged”.
In the case of `NNC(=O)c1ccncc1` [isoniazid], the “sensitivity” value in assay [2] is “unchanged”.
Consider `CO[C@H]1/C=C/O[C@@]2(C)Oc3c(C)c(O)c4c(O)c(c(/C=N/N5CCN(C)CC5)c(O)c4c3C2=O)NC(=O)/C(C)=C\C=C\[C@H](C)[C@H](O)[C@@H](C)[C@@H](O)[C@@H](C)[C@H](OC(C)=O)[C@@H]1C` [rifampin], for which the “sensitivity” value in assay [2] is reported as “unchanged”.
On the same count and under the same terms, the same measure for `[H]/N=C(/N)N[C@H]1[C@H](O)[C@@H](O)[C@H](O[C@@H]2O[C@@H](C)[C@](O)(C=O)[C@H]2O[C@@H]2O[C@@H](CO)[C@H](O)[C@@H](O)[C@@H]2NC)[C@@H](N/C(N)=N\[H])[C@@H]1O` [streptomycin]: “unchanged”.
